Measurements taken from paper PMC7993833, “EDP-938, a novel nucleoprotein inhibitor of respiratory syncytial virus, demonstrates potent antiviral activities in vitro and in a non-human primate model” (PLoS Pathogens, 2021).
“Also recorded” adds a separate entry of the source. Read-outs that look alike come from different tables or passages of the source.

How the values were obtained:
RSV-A2 [1] = assay: RT-qPCR assay, RSV-A2 in HEp-2 cells; assay type: cell-based; conditions: human respiratory syncytial virus
Procedure: (§1) HEp-2, Vero, and BHK were seeded at 8,000 cells per well (cpw) in growth medium (Dulbecco’s Modified Eagle Medium (DMEM) with 1% GlutaMAX, 1% Penicillin/Streptomycin (P/S), 1% Non-Essential Amino Acids (NEAA), 10% Fetal Bovine Serum (FBS)) or (Minimum Essential Medium (MEM) with 10% FBS, 1% NEAA, 1% P/S) or (Eagle’s Minimum Essential Medium with L-Glutamine, with 10% FBS, 1% P/S) respectively. A549 seeded at 3,000 cpw in F-12K Kaighn’s Modification nutrient mixture with 10% FBS, 1% NEAA, 1% P/S. Cells seeded at time of infection in 96-well plates, final well volume 100μL. Compounds suspended in DMSO, serially diluted and added to wells at 0.5% final DMSO concentration. Viral stocks stabilized with 25% sucrose, previously titered using plaque assay, were added at desired MOI. Sucrose added to cells-only control wells to match percent added with virus. Unless otherwise noted, RSV-A strains were tested at 0.1 MOI and incubated for 5 days in a 37°C, 5% CO2 humidified incubator, and RSV-B at 0.5 MOI for 6 days. Cytopathic effect (CPE) determined using ATPlite (Perkin Elmer) measured with Envision luminometer. For RT-qPCR, RNA was extracted from whole well using Ambion RNAqueous-96 Automated Kit, and RT-qPCR run using Applied Biosystems TaqMan RNA-to-CT 1-Step Kit. […] All EC50s were calculated using the XLFit four-parameter logistic model 200 in Microsoft Excel.

RSV-B VR-955 = assay: CPE assay, RSV-B VR-955 in A549 cells; assay type: cell-based; conditions: human respiratory syncytial virus
Procedure: as §1

RSV-A Long [2] = assay: RT-qPCR assay, RSV-A Long in Vero cells; assay type: cell-based; conditions: human respiratory syncytial virus
RSV-A2 [3] = assay: RT-qPCR assay, RSV-A2 in Vero cells; assay type: cell-based; conditions: human respiratory syncytial virus
Procedure: as §1

HBEC = assay: Cytotoxicity (ATPlite) in primary HBECs; assay type: cell-based, human
Procedure: HEp-2, A549, and CHO cells were seeded at 3,000 cpw in their respective growth medium. CHO growth medium used was RPMI medium 1640 with 10% FBS, 1% P/S, 1% GlutaMAX. HEK-293 cells seeded at 10,000 cpw in DMEM growth medium. Undifferentiated HBECs were seeded in collagen-coated 96-well plates at 7,500 cpw in appropriate growth medium. Compound added and incubated for 3 days (4 days for HBECs) as described above. Plates read with ATPlite and CC50 calculated as EC50s as described above. SI = CC50/EC50 within a cell line.

RSV-A clinical isolates [4] = assay: Susceptibility of USA-derived RSV-A clinical isolates; assay type: cell-based; conditions: human respiratory syncytial virus
Procedure: Serial dilutions of the compound were added to cells infected with RSV-A isolates at an MOI of 0.1 (except for isolate 629-9-2 at an MOI of 0.01) or RSV-B isolates at an MOI of 0.5 (expect for isolate 629-24/2007 at an MOI of 0.0044) and were treated for 5 or 6 days, respectively. […] This is consistent with the fact that the viral N protein, which is the putative target of the antiviral effect of EDP-938, is the most conserved RSV protein [11].
HEp-2, Vero, and BHK were seeded at 8,000 cells per well (cpw) in growth medium (Dulbecco’s Modified Eagle Medium (DMEM) with 1% GlutaMAX, 1% Penicillin/Streptomycin (P/S), 1% Non-Essential Amino Acids (NEAA), 10% Fetal Bovine Serum (FBS)) or (Minimum Essential Medium (MEM) with 10% FBS, 1% NEAA, 1% P/S) or (Eagle’s Minimum Essential Medium with L-Glutamine, with 10% FBS, 1% P/S) respectively. A549 seeded at 3,000 cpw in F-12K Kaighn’s Modification nutrient mixture with 10% FBS, 1% NEAA, 1% P/S. Cells seeded at time of infection in 96-well plates, final well volume 100μL. Compounds suspended in DMSO, serially diluted and added to wells at 0.5% final DMSO concentration. […] Cytopathic effect (CPE) determined using ATPlite (Perkin Elmer) measured with Envision luminometer. […] All EC50s were calculated using the XLFit four-parameter logistic model 200 in Microsoft Excel. […]

RSV-A clinical isolates [5] = assay: RSV Virospot reduction assay (ViroClinics), RSV-A isolates from the Netherlands; assay type: cell-based; conditions: human respiratory syncytial virus, 10 RSV-A strains from the Netherlands
Procedure: To further expand testing against clinical isolates, the compound was assayed against a panel of 10 RSV-A and 10 RSV-B strains mainly isolated from children of age 2–200 weeks in the Netherlands.
RSV clinical isolates were obtained from Baylor University and Medical College of Wisconsin. MOI of 0.1 used for all clinical isolates except RSV-A 629-9-2 (0.01) and RSV-B 629-24/2007 (0.0044) due to low titer. Virospot reduction assay was run by ViroClinics (Rotterdam, the Netherlands) against 20 additional RSV clinical isolates.

RSV-A Long [6] = assay: In vitro combination study (CPE, Loewe additivity, CalcuSyn); assay type: cell-based, respiratory syncytial virus
Procedure: The combination effect of EDP-938 with other RSV inhibitors of different mechanisms/targets was investigated in vitro. RSV-A Long infected HEp-2 cells were treated with various concentrations of EDP-938 either alone or in combination with the fusion inhibitor GS-5806, non-nucleoside L polymerase inhibitor AZ-27, nucleoside inhibitor ALS-8112 [38], ribavirin, or palivizumab. The combination of two compounds always led to a greater inhibition than a single agent alone.
To determine whether the effect of the combination was synergistic, additive or antagonistic, the data were analyzed by the Loewe additivity model using Calcusyn software, which gave a Combination Index (CI) value at various effective concentrations of the compounds. […] As an experimental control, adding EDP-938 to itself was additive. For details see S4 Table.
As described above with 8,000 HEp-2 cpw, 0.1 MOI RSV-A Long, 5-day endpoint, and CPE readout. Compounds added in serial 1.3-fold 6-point dilutions across both X- and Y-axes of plate. Plates run in quadruplicate with one uninfected plate for cytotoxicity. Combination indexes calculated using Loewe additivity model using CalcuSyn software from Biosoft.

[7] = test system: recombinant RSV A2-line19F, N protein mutants

For O=C1Nc2ccccc2C(c2ccccc2)=N[C@@H]1Nc1nnc(-c2ncc(C(F)(F)F)cc2N2CCOCC2)o1 [EDP-938], the EC50 (RSV-A2 [1]) was 59 ± 18 nM, the EC90 (RSV-A2 [1]) was 70 ± 30 nM and the EC50 (RSV-B VR-955; 144 h, RSV-B VR-955 MOI 0.5, 6 days) was 72 ± 9 nM. The EC90 (RSV-B VR-955; RSV-B VR-955) was 223 ± 90 nM, the EC50 (RSV-A Long [2]) was 79 ± 12 nM and the EC90 (RSV-A Long [2]) was 118 ± 25 nM. The EC50 (RSV-A2 [3]) was 91 nM, the EC90 (RSV-A2 [3]) was 101 ± 1.7 nM and the selectivity index (HBEC; HBEC cells, SI = CC50/EC50 within a cell line) was > 2,380. For the same compound, the cytotoxicity (HBEC; HBEC, at up to 50 μM, 4 days) was “no significant cytotoxicity”, the EC50 (RSV-A clinical isolates [4]) was 76 nM and the EC50 (RSV-A clinical isolates [5]) was 43 nM. The “combination effect (Combination Index)” value (RSV-A Long [6]; EDP-938 added to itself, CI 0.9–1.1 additivity, <0.9 synergy, >1.1 antagonism) was “additive; also recorded: additivity”, the “combination effect (Combination Index)” value (RSV-A Long [6]; EDP-938 combined with ALS-8112, AZ-27, GS-5806 or palivizumab) was “moderate levels of synergy” and the “combination effect (Combination Index)” value (RSV-A Long [6]; EDP-938 combined with ribavirin) was “additivity”. For the same compound, the “EC50 Fold Change vs. WT” value ([7]; recombinant RSV N K107N) was 1.2 fold, the “EC50 Fold Change vs. WT” value ([7]; recombinant RSV N K136R) was 2.7 fold and the “EC50 Fold Change vs. WT” value ([7]; recombinant RSV N L139I) was 7.2 fold. The “EC50 Fold Change vs. WT” value ([7]; recombinant RSV N M109I) was 1.6 fold, the “EC50 Fold Change vs. WT” value ([7]; recombinant RSV N M109K) was 26.9 fold and the “EC50 Fold Change vs. WT” value ([7]; recombinant RSV N M109T) was 5.4 fold. The “EC50 Fold Change vs. WT” value ([7]; recombinant RSV N N105D) was 1.3 fold, the “EC50 Fold Change vs. WT” value ([7]; recombinant RSV N S134T) was 2.2 fold and the “EC50 Fold Change vs. WT” value ([7]; recombinant RSV N V90A) was 1.0 fold. The “EC50 Fold Change vs. WT” value ([7]; recombinant RSV Wild-type (WT)) was 1.0 fold.
